# In patent US6969702B2, “Compounds and methods for increasing neurogenesis” (priority 2002, dated 2005):
# pEC50: −log10 of the molar value. Where two headings read alike, the source gives them in different places. Marks after values point to notes of the source that are not given here. Ends that are not written are not given here.
# Tests used:
# [1] = test system: cAMP activation in mouse adult neural stem cells; details: 0.1 µM
# [2] = test system: mouse adult neural stem cells; experiment: ATP-assay: proliferation (ATP levels) of neurosphere-derived cells; details: for ATP (nM ATP/well) / Fold Induction ATP: 100 nM
# [3] = test system: cAMP activation in mouse adult neural stem cells; experiment: cAMP detection (HitHunter EFC Cyclic AMP Chemiluminescence Assay)
# [4] = test system: NFAT-Luciferace reporter (Ca^2+)
# [5] = test system: Adult neural stem cells; experiment: Flow cytometry for early neuronal marker Doublecortin; details: 100 nM; for % Doublecortin-positive cells: 4 days
# [6] = test system: mouse adult neural stem cells; details: 0.1 µM
# [7] = test system: Adult neural stem cells; details: 0.1 µM
# [8] = test system: neural stem cells; experiment: In vitro proliferation measured with ATP (Example 14); format: cell-based; design: cell proliferation (ATP), fold the level of control cells: dose or concentration left out as unconfirmed
# Procedure: To determine proliferation, neurospheres were split and seeded in Neurosphere medium as single cells in 96-well plates, at 10,000 cells/well. The following experiment was performed in sets of four parallel experiments (i.e., performed in quadruplicate) such that the cells may be used for different assays. Substances to be tested were added and cells were incubated at 37° C. for 4 days. Cells were lysed with 0.1 % Triton-X100 in Tris-EDTA buffer. Intracellular ATP was measured using an ATP-SL kit according to the manufacturer's instructions (BioThema, Sweden).
# [9] = test system: newborn cells (BrdU positive) in sub ventricular zone and dentate gyrus; experiment: In vivo progenitor cell proliferation (BrdU); design: species or system Wistar rats; details: 10 mg/kg intraperitoneally twice daily 7 days with BrdU
# [10] = test system: adenylate cyclase in UMR 106-06 cells; details: relative to sCT; cited from earlier work
# [11] = molecular target: dipeptidyl peptidase-IV (DPP-VI) (Homo sapiens, UniProt P27487); details: in mammals; cited from earlier work
# [12] = test system: CREB phosphorylation in human adult neural stem cells; format: cell-based; details: 100 nM
# [13] = test system: CREB phosphorylation in mouse adult neural stem cells; format: cell-based; details: 100 nM
# Sequence of dipeptidyl peptidase-IV (DPP-VI) (P27487 whole entry, species assumed): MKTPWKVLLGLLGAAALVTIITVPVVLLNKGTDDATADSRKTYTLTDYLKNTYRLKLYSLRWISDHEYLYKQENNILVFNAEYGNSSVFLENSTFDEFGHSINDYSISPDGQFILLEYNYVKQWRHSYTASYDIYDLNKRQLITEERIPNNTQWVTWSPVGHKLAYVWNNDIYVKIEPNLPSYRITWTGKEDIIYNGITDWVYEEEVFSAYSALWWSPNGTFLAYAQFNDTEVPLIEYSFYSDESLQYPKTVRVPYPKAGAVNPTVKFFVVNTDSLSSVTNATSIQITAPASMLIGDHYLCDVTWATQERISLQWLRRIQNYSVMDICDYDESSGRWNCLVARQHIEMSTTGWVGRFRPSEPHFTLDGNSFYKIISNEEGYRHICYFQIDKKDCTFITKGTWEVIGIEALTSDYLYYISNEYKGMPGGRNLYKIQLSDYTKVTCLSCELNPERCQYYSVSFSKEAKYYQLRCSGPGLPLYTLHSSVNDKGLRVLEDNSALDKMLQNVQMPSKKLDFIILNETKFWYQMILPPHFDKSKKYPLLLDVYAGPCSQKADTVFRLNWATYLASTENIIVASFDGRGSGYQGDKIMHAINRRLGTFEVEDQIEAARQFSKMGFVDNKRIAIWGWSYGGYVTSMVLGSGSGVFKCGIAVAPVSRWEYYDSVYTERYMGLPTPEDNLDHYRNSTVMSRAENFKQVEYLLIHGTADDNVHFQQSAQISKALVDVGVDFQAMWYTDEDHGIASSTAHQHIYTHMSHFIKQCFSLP
molecule,measurement,setting,value
CC[C@H](C)[C@H](NC(=O)[C@H](CCC(N)=O)NC(=O)[C@H](Cc1c[nH]cn1)NC(=O)[C@H](C)NC(=O)[C@H](CC(C)C)NC(=O)[C@H](CCCCN)NC(=O)[C@H](CCC(N)=O)NC(=O)[C@@H](NC(=O)[C@@H](NC(=O)[C@@H]1CSSC[C@H](NC(=O)CNC(=O)[C@H](Cc2ccccc2)NC(=O)[C@H](CO)NC(=O)[C@H](CCCNC(=N)N)NC(=O)[C@H](CC(C)C)NC(=O)CNC(=O)[C@H](CCC(N)=O)NC(=O)[C@H](Cc2ccccc2)NC(=O)[C@H](CC(N)=O)NC(=O)[C@H](CC(N)=O)NC(=O)[C@H](CCSC)NC(=O)[C@H](CO)NC(=O)[C@H](CCC(N)=O)NC(=O)[C@H](CCCNC(=N)N)NC(=O)[C@@H](N)Cc2ccc(O)cc2)C(=O)N[C@@H](CCCNC(=N)N)C(=O)N[C@@H](Cc2ccccc2)C(=O)NCC(=O)N[C@@H]([C@@H](C)O)C(=O)N1)[C@@H](C)O)C(C)C)C(=O)N[C@@H](Cc1ccc(O)cc1)C(=O)N[C@@H](CCC(N)=O)C(=O)N[C@@H](Cc1ccccc1)C(=O)N[C@H](C(=O)N[C@@H](CC(=O)O)C(=O)N[C@@H](CCCCN)C(=O)N[C@@H](CC(=O)O)C(=O)N[C@@H](CCCCN)C(=O)N[C@@H](CC(=O)O)C(=O)N[C@@H](CC(N)=O)C(=O)N[C@H](C(=O)N[C@@H](C)C(=O)N1CCC[C@H]1C(=O)N[C@@H](CCCNC(=N)N)C(=O)N[C@@H](CO)C(=O)N[C@@H](CCCCN)C(=O)N[C@H](C(=O)N[C@@H](CO)C(=O)N1CCC[C@H]1C(=O)N[C@@H](CCC(N)=O)C(=O)NCC(=O)N[C@@H](Cc1ccc(O)cc1)C(N)=O)[C@@H](C)CC)C(C)C)[C@@H](C)O [Adrenomedullin (human)],Fold Induction cAMP,[1],2.5** fold
same,ATP (nM ATP/well),"[2]; Table 2, 4 days",11.6 ± 0.8 nM ATP/well
same,ATP (nM ATP/well),[2]; Table 4,11.6 ± 0.8 nM ATP/well
same,cAMP (pmol/well),"[3]; Table 2, 100 nM (cAMP concentration)",0.15 ± 0.3 pmol/well
same,Fold Induction NFAT,[4]; 0.1 µM,2.2** fold
same,NFAT Luciferace units,"[4]; Table 4, 100 nM, 24 hours after induction",12.4 ± 0.9 Luciferace units
same,% Doublecortin-positive cells,[5]; Table 6,4.2%
same,Fold Induction ATP,[6],1.1* fold
same,Fold Induction (Doublecortin-positive cells),[7],1.6 fold
CC[C@H](C)[C@H](NC(=O)[C@H](C)NC(=O)[C@@H](NC(=O)[C@H](CCC(N)=O)NC(=O)[C@@H]1CCCN1C(=O)[C@H](Cc1ccccc1)NC(=O)[C@@H](NC(=O)[C@H](Cc1c[nH]cn1)NC(=O)[C@H](Cc1ccccc1)NC(=O)[C@H](CCCCN)NC(=O)[C@H](CC(N)=O)NC(=O)[C@H](Cc1ccccc1)NC(=O)[C@H](CC(=O)O)NC(=O)[C@H](CCC(N)=O)NC(=O)[C@@H](NC(=O)[C@H](Cc1ccc(O)cc1)NC(=O)[C@@H](NC(=O)CNC(=O)[C@H](CC(C)C)NC(=O)[C@H](CCSC)NC(=O)[C@@H]1CSSC[C@H](N)C(=O)NCC(=O)N[C@@H](CC(N)=O)C(=O)N[C@@H](CC(C)C)C(=O)N[C@@H](CO)C(=O)N[C@@H]([C@@H](C)O)C(=O)N1)[C@@H](C)O)[C@@H](C)O)[C@@H](C)O)[C@@H](C)O)C(=O)NCC(=O)N[C@H](C(=O)NCC(=O)N[C@@H](C)C(=O)N1CCC[C@H]1C(N)=O)C(C)C [calcitonin],"cell proliferation (ATP), fold the level of control cells",[8]; 4 days,2.5 fold
same,pEC50,"[8]; neural stem cell cultures, read-out: EC50 value (proliferation dose-response curve, FIG. 3)",10.52
same,number of newborn cells (BrdU positive compared to sham injected),[9],significant increase
"CSNLSTCVLGRLSKDLHRLQTFPRTNTGAGVP (cysteine pairing not given here) [[Arg11, 18, Lys14]-sCT]",potency in activating adenylate cyclase,[10],equivalent to that of sCT
His-Asp-Glu-Phe-Glu-Arg-His-Ala-Glu-Gly-Thr-Phe-Thr-Ser-Asp-Val-Ser-Ser-Tyr-Leu-Glu-Gly-Gln-Ala-Ala-Lys-Glu-Phe-Ile-Ala-Trp-Leu-Val-Lys-Gly-Arg-Gly [GLP-1],halftime of degradation,[11],less than 2 min
"PACAP: pituitary adengate cyclase activating peptide, cAMP activator (HSDGIFTDSYSRYRKQMAVKKYLAAVLGKRYKQRVKNK; ends and bridges not checked; UniProt P18509 132-169, looked up)",CREB phosphorylation,"[12]; human adult neural stem cells, time course 15 minutes to 8 hours",up-regulation of CREB phosphorylation
same,CREB phosphorylation,"[13]; mouse adult neural stem cells, time course 15 minutes to 8 hours",up-regulation of CREB phosphorylation
cholera toxin,proliferation of neural stem cells,[2],increase
same,ATP (nM ATP/well),[2],12.9 ± 1.6 nM ATP/well
same,Fold Induction ATP,[2],1.4* fold
same,Fold Induction ATP,[2]; 4 days,1.4* fold
same,cAMP (pmol/well),[3],0.07 ± 0.01 pmol/well
same,Fold Induction cAMP,[3]; 10 nM,3.1*** fold
same,CREB phosphorylation,[12],up-regulation of CREB phosphorylation
same,Fold Induction NFAT,[4]; 100 nM,1.4** fold
same,NFAT Luciferace units,[4]; 100 nM,11.6 ± 1.0 Luciferace units
same,Fold Induction (Doublecortin-positive cells),[5],2.6 fold
same,% Doublecortin-positive cells,[5],6.7%
same,CREB phosphorylation,[13],up-regulation of CREB phosphorylation
